According to US10954269B2, “Anti-inflammatory tripeptides” (Dr. August Wolff Gmbh & Co. KG Arzneimittel, priority 2013, dated 2021):

Columns and labels:
primary human T-cells = assay: Cytokine secretion on protein level in activated primary human T-cells (13-plex FACS / Luminex, supernatant); type: cell-based; conditions: for IL-1 cytokine concentration / IL-2 cytokine concentration / IL-4 cytokine concentration / IL-5 cytokine concentration / IL-6 cytokine concentration / IL-9 cytokine concentration / IL-10 cytokine concentration / IL-12p70 cytokine concentration / IL-13 cytokine concentration / IL-17 cytokine concentration / IL-22 cytokine concentration / TNF-α cytokine concentration / INF-α cytokine concentration: substance 10^−9M
Method in brief: (§1)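 Primary T-cells from peripheral blood of healthy volunteers, or HaCaT cells, were activated with PMA/Ionomycin or IFN-γ for 48 h and treated with tripeptides. Supernatants were collected 48 h and 72 h after stimulation and cytokines (IL-1, IL-2, IL-6, IL-12p70, IL-17, IFN-γ, TNF-α) were measured by 13-plex FACS.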

[1] = system: human keratinocyte cell line (HaCaT); assay: Cytokine secretion on protein level in activated human keratinocyte cell line HaCaT (13-plex FACS / Luminex, supernatant); type: cell-based; conditions: for IL-1 cytokine concentration / IL-2 cytokine concentration / IL-4 cytokine concentration / IL-5 cytokine concentration / IL-6 cytokine concentration / IL-9 cytokine concentration / IL-10 cytokine concentration / IL-12p70 cytokine concentration / IL-13 cytokine concentration / IL-17 cytokine concentration / IL-22 cytokine concentration / TNF-α cytokine concentration / IFN-γ cytokine concentration: substance 10^−9M
Method in brief: as §1

primary murine T-cells = assay: Cytokine secretion on protein level in activated primary murine T-cells (13-plex FACS / Luminex, supernatant); type: cell-based, C57BL/6 mice; conditions: for IL-1 cytokine concentration / IL-2 cytokine concentration / IL-4 cytokine concentration / IL-5 cytokine concentration / IL-6 cytokine concentration / IL-10 cytokine concentration / IL-13 cytokine concentration / IL-17 cytokine concentration / IL-21 cytokine concentration / IL-22 cytokine concentration / IL-27 cytokine concentration / TNF-α cytokine concentration / IFN-γ cytokine concentration: substance 10^−9M
Method in brief: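 T-cells from secondary lymphatic organs of naïve C57BL/6 mice, stimulated with PMA/Ionomycin or IFN-γ; supernatant cytokines measured by 13-plex FACS 48 h and 72 h after stimulation. In another run, PMA/Ionomycin-stimulated cells received compounds at 10^−7, 10^−9 and 10^−11 M, with IFN-γ, IL-17 and IL-10 measured by Luminex.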

[2] = primary human T-cells stimulated with IFN-γ
[3] = primary human T-cells stimulated with PBS
[4] = primary human T-cells stimulated with PMA/Ionomycin
[5] = HaCaT stimulated with PMA/Ionomycin
[6] = primary murine T-cells stimulated with IFN-γ
[7] = primary murine T-cells stimulated with PBS
[8] = primary murine T-cells stimulated with PMA/Ionomycin

With H-(L)-Nle-(L)-Pro-Aib-OH [Example 12] the “secretion / expression of pro-inflammatory cytokines (supernatant)” value (“secretion / expression” below) (primary human T-cells; activated primary human T-cells) was “able to reduce”, the IL-1 cytokine concentration (primary human T-cells; [2]) was 44.77 pg/mL and the IL-2 cytokine concentration (primary human T-cells; [2]) was 0 pg/mL. For the same substance, the IL-4 cytokine concentration (primary human T-cells; [2]) was 0 pg/mL, the IL-5 cytokine concentration (primary human T-cells; [2]) was 0 pg/mL and the IL-6 cytokine concentration (primary human T-cells; [2]) was 60.44 pg/mL. For the same substance, the IL-9 cytokine concentration (primary human T-cells; [2]) was 7.67 pg/mL, the IL-10 cytokine concentration (primary human T-cells; [2]) was 84.25 pg/mL and the IL-12p70 cytokine concentration (primary human T-cells; [2]) was 0 pg/mL. It also gave an IL-13 cytokine concentration (primary human T-cells; [2]) of 0 pg/mL, an IL-17 cytokine concentration (primary human T-cells; [2]) of 0 pg/mL and an IL-22 cytokine concentration (primary human T-cells; [2]) of 0 pg/mL. For the same substance, the TNF-α cytokine concentration (primary human T-cells; [2]) was 41.38 pg/mL, the IL-1 cytokine concentration (primary human T-cells; [3]) was 0 pg/mL and the IL-2 cytokine concentration (primary human T-cells; [3]) was 0 pg/mL. The IL-4 cytokine concentration (primary human T-cells; [3]) was 0 pg/mL, the IL-5 cytokine concentration (primary human T-cells; [3]) was 0 pg/mL and the IL-6 cytokine concentration (primary human T-cells; [3]) was 91.86 pg/mL. It also gave an IL-9 cytokine concentration (primary human T-cells; [3]) of 0 pg/mL, an IL-10 cytokine concentration (primary human T-cells; [3]) of 189.65 pg/mL and an IL-12p70 cytokine concentration (primary human T-cells; [3]) of 0 pg/mL. It also gave an IL-13 cytokine concentration (primary human T-cells; [3]) of 0 pg/mL, an IL-17 cytokine concentration (primary human T-cells; [3]) of 104.68 pg/mL and an IL-22 cytokine concentration (primary human T-cells; [3]) of 0 pg/mL. It also gave an INF-α cytokine concentration (primary human T-cells; [3]) of 0 pg/mL, a TNF-α cytokine concentration (primary human T-cells; [3]) of 41.38 pg/mL and an IL-1 cytokine concentration (primary human T-cells; [4]) of 548.85 pg/mL. For the same substance, the IL-2 cytokine concentration (primary human T-cells; [4]) was 2751.28 pg/mL, the IL-4 cytokine concentration (primary human T-cells; [4]) was 73.38 pg/mL and the IL-5 cytokine concentration (primary human T-cells; [4]) was 328.24 pg/mL. The IL-6 cytokine concentration (primary human T-cells; [4]) was 1046.79 pg/mL, the IL-9 cytokine concentration (primary human T-cells; [4]) was 286.89 pg/mL and the IL-10 cytokine concentration (primary human T-cells; [4]) was 992.02 pg/mL. For the same substance, the IL-12p70 cytokine concentration (primary human T-cells; [4]) was 0 pg/mL, the IL-13 cytokine concentration (primary human T-cells; [4]) was 1026.08 pg/mL and the IL-17 cytokine concentration (primary human T-cells; [4]) was 1355.07 pg/mL. The IL-22 cytokine concentration (primary human T-cells; [4]) was 0 pg/mL, the INF-α cytokine concentration (primary human T-cells; [4]) was 9454.26 pg/mL and the TNF-α cytokine concentration (primary human T-cells; [4]) was 2985.72 pg/mL. For the same substance, the “activity (reduction of pro-inflammatory cytokines) relative to K(D)PT” value (primary human T-cells; second experiment, all three cellular models) was “comparable”, the IL-1 cytokine concentration ([1]; HaCaT stimulated with IFN-γ) was 9.31 pg/mL and the IL-2 cytokine concentration ([1]; HaCaT stimulated with IFN-γ) was 0 pg/mL. The IL-4 cytokine concentration ([1]; HaCaT stimulated with IFN-γ) was 69.91 pg/mL, the IL-5 cytokine concentration ([1]; HaCaT stimulated with IFN-γ) was 0 pg/mL and the IL-6 cytokine concentration ([1]; HaCaT stimulated with IFN-γ) was 297.09 pg/mL. For the same substance, the IL-9 cytokine concentration ([1]; HaCaT stimulated with IFN-γ) was 0 pg/mL, the IL-10 cytokine concentration ([1]; HaCaT stimulated with IFN-γ) was 0 pg/mL and the IL-12p70 cytokine concentration ([1]; HaCaT stimulated with IFN-γ) was 0 pg/mL. It also gave an IL-13 cytokine concentration ([1]; HaCaT stimulated with IFN-γ) of 195.68 pg/mL, an IL-17 cytokine concentration ([1]; HaCaT stimulated with IFN-γ) of 56.13 pg/mL and an IL-22 cytokine concentration ([1]; HaCaT stimulated with IFN-γ) of 0 pg/mL. It also gave a TNF-α cytokine concentration ([1]; HaCaT stimulated with IFN-γ) of 0 pg/mL, an IFN-γ cytokine concentration ([1]; HaCaT stimulated with PBS) of 0 pg/mL and an IL-1 cytokine concentration ([1]; HaCaT stimulated with PBS) of 0 pg/mL. For the same substance, the IL-2 cytokine concentration ([1]; HaCaT stimulated with PBS) was 0 pg/mL, the IL-4 cytokine concentration ([1]; HaCaT stimulated with PBS) was 0 pg/mL and the IL-5 cytokine concentration ([1]; HaCaT stimulated with PBS) was 0 pg/mL. The IL-6 cytokine concentration ([1]; HaCaT stimulated with PBS) was 56.87 pg/mL, the IL-9 cytokine concentration ([1]; HaCaT stimulated with PBS) was 4.96 pg/mL and the IL-10 cytokine concentration ([1]; HaCaT stimulated with PBS) was 69.45 pg/mL. For the same substance, the IL-12p70 cytokine concentration ([1]; HaCaT stimulated with PBS) was 0 pg/mL, the IL-13 cytokine concentration ([1]; HaCaT stimulated with PBS) was 193.75 pg/mL and the IL-17 cytokine concentration ([1]; HaCaT stimulated with PBS) was 0 pg/mL. For the same substance, the IL-22 cytokine concentration ([1]; HaCaT stimulated with PBS) was 0 pg/mL, the TNF-α cytokine concentration ([1]; HaCaT stimulated with PBS) was 5.55 pg/mL and the IFN-γ cytokine concentration [1, 5] was 22.77 pg/mL. The IL-1 cytokine concentration [1, 5] was 0 pg/mL, the IL-2 cytokine concentration [1, 5] was 0 pg/mL and the IL-4 cytokine concentration [1, 5] was 0 pg/mL. It also gave an IL-5 cytokine concentration [1, 5] of 0 pg/mL, an IL-6 cytokine concentration [1, 5] of 158.4 pg/mL and an IL-9 cytokine concentration [1, 5] of 0 pg/mL. It also gave an IL-10 cytokine concentration [1, 5] of 86.04 pg/mL, an IL-12p70 cytokine concentration [1, 5] of 0 pg/mL and an IL-13 cytokine concentration [1, 5] of 0 pg/mL. For the same substance, the IL-17 cytokine concentration [1, 5] was 25.98 pg/mL, the IL-22 cytokine concentration [1, 5] was 0 pg/mL and the TNF-α cytokine concentration [1, 5] was 0 pg/mL. For the same substance, the “secretion / expression” value ([1]; activated human keratinocytes) was “able to reduce”, the “secretion / expression” value (primary murine T-cells; activated primary murine T-cells) was “able to reduce” and the IL-1 cytokine concentration (primary murine T-cells; [6]) was 86.08 pg/mL. It also gave an IL-2 cytokine concentration (primary murine T-cells; [6]) of 88.9 pg/mL, an IL-4 cytokine concentration (primary murine T-cells; [6]) of 34.22 pg/mL and an IL-5 cytokine concentration (primary murine T-cells; [6]) of 221.57 pg/mL. It also gave an IL-6 cytokine concentration (primary murine T-cells; [6]) of 110.7 pg/mL, an IL-10 cytokine concentration (primary murine T-cells; [6]) of 1130.01 pg/mL and an IL-13 cytokine concentration (primary murine T-cells; [6]) of 0 pg/mL. It also gave an IL-17 cytokine concentration (primary murine T-cells; [6]) of 72.21 pg/mL, an IL-21 cytokine concentration (primary murine T-cells; [6]) of 40.2 pg/mL and an IL-22 cytokine concentration (primary murine T-cells; [6]) of 42.98 pg/mL. For the same substance, the IL-27 cytokine concentration (primary murine T-cells; [6]) was 12.5 pg/mL, the TNF-α cytokine concentration (primary murine T-cells; [6]) was 31.88 pg/mL and the IFN-γ cytokine concentration (primary murine T-cells; [7]) was 0 pg/mL. It also gave an IL-1 cytokine concentration (primary murine T-cells; [7]) of 61.52 pg/mL, an IL-2 cytokine concentration (primary murine T-cells; [7]) of 189.72 pg/mL and an IL-4 cytokine concentration (primary murine T-cells; [7]) of 32.24 pg/mL. For the same substance, the IL-5 cytokine concentration (primary murine T-cells; [7]) was 331.87 pg/mL, the IL-6 cytokine concentration (primary murine T-cells; [7]) was 223.98 pg/mL and the IL-10 cytokine concentration (primary murine T-cells; [7]) was 872.36 pg/mL. It also gave an IL-13 cytokine concentration (primary murine T-cells; [7]) of 0 pg/mL, an IL-17 cytokine concentration (primary murine T-cells; [7]) of 0 pg/mL and an IL-21 cytokine concentration (primary murine T-cells; [7]) of 69.64 pg/mL. For the same substance, the IL-22 cytokine concentration (primary murine T-cells; [7]) was 76.71 pg/mL, the IL-27 cytokine concentration (primary murine T-cells; [7]) was 71.85 pg/mL and the TNF-α cytokine concentration (primary murine T-cells; [7]) was 74.9 pg/mL. It also gave an IFN-γ cytokine concentration (primary murine T-cells; [8]) of 1298.02 pg/mL, an IL-1 cytokine concentration (primary murine T-cells; [8]) of 167.79 pg/mL and an IL-2 cytokine concentration (primary murine T-cells; [8]) of 98.57 pg/mL. It also gave an IL-4 cytokine concentration (primary murine T-cells; [8]) of 90.14 pg/mL, an IL-5 cytokine concentration (primary murine T-cells; [8]) of 242.24 pg/mL and an IL-6 cytokine concentration (primary murine T-cells; [8]) of 116.16 pg/mL. The IL-10 cytokine concentration (primary murine T-cells; [8]) was 1255.25 pg/mL, the IL-13 cytokine concentration (primary murine T-cells; [8]) was 0 pg/mL and the IL-17 cytokine concentration (primary murine T-cells; [8]) was 79.1 pg/mL. It also gave an IL-21 cytokine concentration (primary murine T-cells; [8]) of 0 pg/mL, an IL-22 cytokine concentration (primary murine T-cells; [8]) of 57.07 pg/mL and an IL-27 cytokine concentration (primary murine T-cells; [8]) of 80.09 pg/mL. For the same substance, the TNF-α cytokine concentration (primary murine T-cells; [8]) was 50.73 pg/mL.
